biological target: CBL-B protein (Homo sapiens, UniProt Q13191); test: CBL-B binding experiment (Streptavidin-Tb cryptate / Ligand L1 displacement); conditions: 8 nM CBL-B protein, 25° C., 60 minutes; Ki=Relative IC50/2
Description: The reaction system mainly includes 1× buffer, 20 mM HEPES pH 7.5, 150 mM NaCl, 0.01% Triton X-100, 0.5 mM TCEP, and 0.1% ug/ml BSA. The compound is continuously diluted with DMSO for 10 concentration points, and 150 nL is transferred to the experimental plate. The experimental reaction begins after adding 8 nM of CBL-B protein and the reaction is carried out at 25° C. for 60 minutes. […] After an additional 60 minutes of incubation at room temperature, the experimental plate is read using an EnVision plate. The luminescence signal values were converted to percentage inhibition rates. Inhibition %=(Sample value−Maximum value)/(Minimum value−Maximum value)×100. The minimum value refers to the measured value in the wells without CBL-B protein but with DMSO and Ligand, while the maximum value refers to the measured value in the wells with DMSO, CBL-B protein, and Ligand. The IC50 values are calculated by XLFit (version 5.3.1.3) in Excel. Equation: Y=Bottom+(Top−Bottom)/(1+(IC50/X)^HillSlope); Ki=Relative IC50/2.

Chain of CBL-B protein (Q13191 whole entry): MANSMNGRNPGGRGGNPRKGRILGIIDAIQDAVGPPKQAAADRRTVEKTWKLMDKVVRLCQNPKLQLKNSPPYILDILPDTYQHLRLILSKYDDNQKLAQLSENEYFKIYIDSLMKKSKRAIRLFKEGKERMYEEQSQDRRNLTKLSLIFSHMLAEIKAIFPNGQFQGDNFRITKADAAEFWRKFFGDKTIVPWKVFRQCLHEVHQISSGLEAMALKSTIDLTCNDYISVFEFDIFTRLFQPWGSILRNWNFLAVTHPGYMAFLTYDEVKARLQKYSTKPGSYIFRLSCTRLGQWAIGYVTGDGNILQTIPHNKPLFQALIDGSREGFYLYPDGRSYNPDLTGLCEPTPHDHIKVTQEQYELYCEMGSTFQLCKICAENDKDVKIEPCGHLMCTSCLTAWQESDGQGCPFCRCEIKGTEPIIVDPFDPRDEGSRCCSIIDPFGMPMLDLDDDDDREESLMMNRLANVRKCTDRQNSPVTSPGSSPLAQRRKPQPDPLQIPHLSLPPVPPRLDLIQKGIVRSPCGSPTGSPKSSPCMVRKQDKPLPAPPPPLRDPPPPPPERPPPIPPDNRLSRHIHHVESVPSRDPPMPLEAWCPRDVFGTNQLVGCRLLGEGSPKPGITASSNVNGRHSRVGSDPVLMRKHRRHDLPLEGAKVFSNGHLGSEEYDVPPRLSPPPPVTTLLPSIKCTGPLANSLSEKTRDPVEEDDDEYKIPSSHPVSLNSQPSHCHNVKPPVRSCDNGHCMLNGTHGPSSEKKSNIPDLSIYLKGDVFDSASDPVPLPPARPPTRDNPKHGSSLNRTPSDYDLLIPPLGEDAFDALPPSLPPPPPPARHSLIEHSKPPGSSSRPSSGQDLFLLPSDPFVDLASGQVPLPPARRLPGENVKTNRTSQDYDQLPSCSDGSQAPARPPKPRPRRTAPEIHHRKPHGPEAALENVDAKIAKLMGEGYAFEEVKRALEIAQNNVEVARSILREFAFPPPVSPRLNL

Ki, < 50 nM:
Cn1cnnc1C1(c2cccc(-n3cc(C(F)(F)F)c4cc(CN5CCC[C@](C)(O)C5)[nH]c4c3=O)c2)CCC1 [Compound T064, (S)-2-((3-hydroxy-3-methylpiperidin-1-yl)methyl)-6-(3-(1-(4-methyl-4H-1,2,4-triazol-3-yl)cyclobutyl)phenyl)-4-(trifluoromethyl)-1,6-dihydro-7H-pyrrolo[2,3-c]pyridin-7-one]
Cn1cnnc1C1(c2cccc(-n3cc(C(F)(F)F)c4cc(CN5CCC[C@@](C)(O)C5)[nH]c4c3=O)c2)CCC1 [Compound T065, 2-[[(3R)-3-hydroxy-3-methyl-1-piperidyl]methyl]-6-[3-[1-(4-methyl-1,2,4-triazol-3-yl)cyclobutyl]phenyl]-4-(trifluoromethyl)-1H-pyrrolo[2,3-c]pyridin-7-one]
Cn1cnnc1C1(c2cccc(-n3cc(C(F)(F)F)c4cc(CN5CC[C@@H](O)[C@@H](F)C5)[nH]c4c3=O)c2)CCC1 [Compound T072, 2-(((3 S,4R)-3-fluoro-4-hydroxypiperidin-1-yl)methyl)-6-(3-(1-(4-methyl-4H-1,2,4-triazol-3-yl)cyclobutyl)phenyl)-4-(trifluoromethyl)-1,6-dihydro-7H-pyrrolo[2,3-c]pyridin-7-one]
C[C@H]1CCCN(Cc2cc3c(C(F)(F)F)cn(-c4ccc([C@]5(c6nncn6C)C[C@@H](C)C5)s4)c(=O)c3[nH]2)C1 [Compound T073, 6-(5-((1r,3S)-3-methyl-1-(4-methyl-4H-1,2,4-triazol-3-yl)cyclobutyl)thiophen-2-yl)-2-(((S)-3-methylpiperidin-1-yl)methyl)-4-(trifluoromethyl)-1,6-dihydro-7H-pyrrolo[2,3-c]pyridin-7-one]
C[C@H]1CCCN(Cc2cc3c(C(F)(F)F)cn(-c4ccc([C@]5(c6nncn6C)C[C@H](C)C5)s4)c(=O)c3[nH]2)C1 [Compound T074, 6-(5-((1s,3R)-3-methyl-1-(4-methyl-4H-1,2,4-triazol-3-yl)cyclobutyl)thiophen-2-yl)-2-(((S)-3-methylpiperidin-1-yl)methyl)-4-(trifluoromethyl)-1,6-dihydro-7H-pyrrolo[2,3-c]pyridin-7-one]
Cn1cnnc1C1(c2cccc(-n3cc(C(F)(F)F)c4cc(CN5CCC(F)(F)CC5)[nH]c4c3=O)c2)CCC1 [Compound T075, 2-[(4,4-difluoro-1-piperidyl)methyl]-6-[3-[1-(4-methyl-1,2,4-triazol-3-yl)cyclobutyl]phenyl]-4-(trifluoromethyl)-1H-pyrrolo[2,3-c]pyridin-7-one]
C[C@H]1CCCN(Cc2cc3c(C(F)(F)F)cn(-c4cccc(-c5ccccc5-c5nncn5C)c4)c(=O)c3[nH]2)C1 [Compound T076, 2-[[(3S)-3-methyl-1-piperidyl]methyl]-6-[3-[2-(4-methyl-1,2,4-triazol-3-yl)phenyl]phenyl]-4-(trifluoromethyl)-1H-pyrrolo[2,3-c]pyridin-7-one]
C[C@@H]1CN(Cc2cc3c(C4CC4)cn(-c4cccc(C5(Cc6nncn6C)COC5)c4)c(=O)c3[nH]2)CCC1(F)F [Compound T078, (R)-4-cyclopropyl-2-((4,4-difluoro-3-methylpiperidin-1-yl)methyl)-6-(3-(3-((4-methyl-4H-1,2,4-triazol-3-yl)methyl)oxetan-3-yl)phenyl)-1,6-dihydro-7H-pyrrolo[2,3-c]pyridin-7-one]
C[C@H]1CN(Cc2cc3c(C4CC4)cn(-c4cccc(C5(Cc6nncn6C)COC5)c4)c(=O)c3[nH]2)CCC1(F)F [Compound T079, (S)-4-cyclopropyl-2-((4,4-difluoro-3-methylpiperidin-1-yl)methyl)-6-(3-(3-((4-methyl-4H-1,2,4-triazol-3-yl)methyl)oxetan-3-yl)phenyl)-1,6-dihydro-7H-pyrrolo[2,3-c]pyridin-7-one]
Cn1cnnc1C1(c2cccc(-n3cc(C(F)(F)F)c4cc(CN5CCC[C@H](CC#N)C5)[nH]c4c3=O)c2)CCC1 [Compound T081, (R)-2-(1-((6-(3-(1-(4-methyl-4H-1,2,4-triazol-3-yl)cyclobutyl)phenyl)-7-oxo-4-(trifluoromethyl)-6,7-dihydro-1H-pyrrolo[2,3-c]pyridin-2-yl)methyl)piperidin-3-yl)acetonitrile]
C[C@H]1CCCN(Cc2cc3c(S(C)(=O)=O)cn(-c4cccc(C5(Cc6nncn6C)COC5)c4)c(=O)c3[nH]2)C1 [Compound T089, 2-[[(3S)-3-methyl-1-piperidyl]methyl]-4-methylsulfonyl-6-[3-[3-[(4-methyl-1,2,4-triazol-3-yl)methyl]oxetan-3-yl]phenyl]-1H-pyrrolo[2,3-c]pyridin-7-one]
C[C@H]1CCCN(Cc2cc3c(Br)cn(-c4cccc(C5(Cc6nncn6C)COC5)c4)c(=O)c3[nH]2)C1 [Compound T090, (S)-4-bromo-6-(3-(3-((4-methyl-4H-1,2,4-triazol-3-yl)methyl)oxetan-3-yl)phenyl)-2-((3-methylpiperidin-1-yl)methyl)-1,6-dihydro-7H-pyrrolo[2,3-c]pyridin-7-one]
CC(C)C1CN(C)CCN1Cc1cc2c(C3CC3)cn(-c3cccc([C@]4(c5nncn5C)C[C@@H](C)C4)c3)c(=O)c2[nH]1 (some centres unmarked) [Compound T094, 4-cyclopropyl-2-((2-isopropyl-4-methylpiperazin-1-yl)methyl)-6-(3-((1s,3s)-3-methyl-1-(4-methyl-4H-1,2,4-triazol-3-yl)cyclobutyl)phenyl)-1,6-dihydro-7H-pyrrolo[2,3-c]pyridin-7-one]
CC(C)[C@@H]1CN(C)CCN1Cc1cc2c(C3CC3)cn(-c3cccc([C@]4(c5nncn5C)C[C@@H](C)C4)c3)c(=O)c2[nH]1 [Compound T095, 4-cyclopropyl-2-(((R)-2-isopropyl-4-methylpiperazin-1-yl)methyl)-6-(3-((1s,3S)-3-methyl-1-(4-methyl-4H-1,2,4-triazol-3-yl)cyclobutyl)phenyl)-1,6-dihydro-7H-pyrrolo[2,3-c]pyridin-7-one]
CC(C)CN(Cc1cc2c(C(F)(F)F)cn(-c3cccc(C4(c5nncn5C)CCC4)c3)c(=O)c2[nH]1)CC(C)C [Compound T098, 2-[(diisobutylamino)methyl]-6-[3-[1-(4-methyl-1,2,4-triazol-3-yl)cyclobutyl]phenyl]-4-(trifluoromethyl)-1H-pyrrolo[2,3-c]pyridin-7-one]
COCC1(NCc2cc3c(C(F)(F)F)cn(-c4cccc([C@]5(c6nncn6C)C[C@H](OC)C5)c4)c(=O)c3[nH]2)CC1 [Compound T099, 6-(3-((1r,3r)-3-methoxy-1-(4-methyl-4H-1,2,4-triazol-3-yl)cyclobutyl)phenyl)-2-(((1-(methoxymethyl)cyclopropyl)amino)methyl)-4-(trifluoromethyl)-1,6-dihydro-7H-pyrrolo[2,3-c]pyridin-7-one]
COCC1(NCc2cc3c(C(F)(F)F)cn(-c4cccc([C@]5(c6nncn6C)C[C@@H](OC)C5)c4)c(=O)c3[nH]2)CC1 [Compound T100, 6-(3-((1s,3s)-3-methoxy-1-(4-methyl-4H-1,2,4-triazol-3-yl)cyclobutyl)phenyl)-2-(((1-(methoxymethyl)cyclopropyl)amino)methyl)-4-(trifluoromethyl)-1,6-dihydro-7H-pyrrolo[2,3-c]pyridin-7-one]

— US20260217706A1, “HETEROCYCLIC COMPOUNDS, PREPARATION METHOD THEREFOR AND USE THEREOF” (GUANGZHOU YUFAN NANTU BIOTECHNOLOGIES CO., LTD, priority 2023, published 2026)
